Data reported in patent publication US7157430B2, “(Substituted)acyl dipeptidyl inhibitors of the ICE/CED-3 family of cysteine proteases” (Idun Pharmaceuticals, Inc., priority 1998, dated 2007).
pKi: −log10 of the molar value.

Experiments:
Type in all cases: biochemical
Conditions in all cases: continuous assay 60 min, reaction initiated by adding enzyme
CPP32 = target: T1, CPP32 (Homo sapiens, UniProt P42574); assay: Dissociation constant Ki and irreversible rate constant k3 for irreversible inhibitors, CPP32
T1 sequence (P42574 29-175 limits assumed): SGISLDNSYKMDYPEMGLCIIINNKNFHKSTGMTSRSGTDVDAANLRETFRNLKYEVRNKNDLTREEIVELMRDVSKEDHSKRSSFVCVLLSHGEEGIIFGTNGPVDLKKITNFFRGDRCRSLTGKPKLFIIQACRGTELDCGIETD
T1 sequence (P42574 176-277 limits assumed): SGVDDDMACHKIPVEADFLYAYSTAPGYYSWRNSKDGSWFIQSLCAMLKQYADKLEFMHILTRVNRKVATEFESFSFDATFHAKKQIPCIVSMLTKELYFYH
Source text: (§1) For the irreversible inhibition of a ICE/ced-3 Family Protease enzyme with a competitive irreversible inhibitor; using the model represented by the following formulas: […]
(§2) The product formation at time t may be expressed as:
(§3) [formula] where E, I, EI and E-I denote the active enzyme, inhibitor, non-covalent enzyme-inhibitor complex and covalent enzyme-inhibitor adduct, respectively. The Ki value is the overall dissociation constant of the reversible binding steps, and k3 is the irreversible rate constant. The [S] and Ks values are the substate concentration and dissociation constant of the substrate bound to the enzyme, respectively. [E]^T is the total enzyme concentration.
(§4) The above equations were used to determine the Ki and k3 values of a given inhibitor bound to a ICE/ced-3 family protease. Thus, a continuous assay was run for sixty minutes at various concentrations of the inhibitor and the substrate. The assay was formulated essentially the same as described above for generating the data in Table 1, except that the reaction was initiated by adding the enzyme to the substrate-inhibitor mixture. The Ki and k3 values were obtained by simulating the product AMC formation as a function of time according to Equation 1.
(§5) The reference compound for this assay was Cbz-ValAlaAsp-CH2F and the values are denoted in Table 2 as “Reference”. The Ki values in Table 2 are in micromolar (μM). The k3/Ki values are in moles^−1 seconds^−1 (M^−1s^−1).

mICE = target: T2, mICE (Mus musculus, UniProt P29452); assay: Dissociation constant Ki and irreversible rate constant k3 for irreversible inhibitors, ICE
T2 sequence (P29452 123-296 limits assumed): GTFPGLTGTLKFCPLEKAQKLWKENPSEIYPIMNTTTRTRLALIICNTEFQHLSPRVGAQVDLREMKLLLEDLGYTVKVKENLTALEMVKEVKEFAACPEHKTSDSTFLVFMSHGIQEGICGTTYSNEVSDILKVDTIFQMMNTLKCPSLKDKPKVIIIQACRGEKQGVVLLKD
T2 sequence (P29452 315-402 limits assumed): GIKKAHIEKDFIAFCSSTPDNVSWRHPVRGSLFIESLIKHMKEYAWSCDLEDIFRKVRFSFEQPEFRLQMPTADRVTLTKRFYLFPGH
Source text: as §1, §2, §3, §4, §5

MCH-2 = target: T3, MCH-2 (Homo sapiens, UniProt P55212); assay: Dissociation constant Ki and irreversible rate constant k3 for irreversible inhibitors, Mch2
T3 sequence (P55212 24-179 limits assumed): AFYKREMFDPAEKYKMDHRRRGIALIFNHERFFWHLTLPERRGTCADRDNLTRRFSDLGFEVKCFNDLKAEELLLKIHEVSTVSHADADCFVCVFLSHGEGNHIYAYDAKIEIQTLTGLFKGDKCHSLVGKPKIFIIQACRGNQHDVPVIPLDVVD
T3 sequence (P55212 194-293 limits assumed): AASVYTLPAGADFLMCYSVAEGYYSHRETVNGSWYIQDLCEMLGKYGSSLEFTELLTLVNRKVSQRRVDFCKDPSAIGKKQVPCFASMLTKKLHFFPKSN
Source text: as §1, §2, §3, §4, §5

MCH-5 = MCH-5 (Homo sapiens, UniProt Q14790); assay: Dissociation constant Ki and irreversible rate constant k3 for irreversible inhibitors, Mch5
Sequence of MCH-5 (Q14790 217-374 limits assumed, species assumed): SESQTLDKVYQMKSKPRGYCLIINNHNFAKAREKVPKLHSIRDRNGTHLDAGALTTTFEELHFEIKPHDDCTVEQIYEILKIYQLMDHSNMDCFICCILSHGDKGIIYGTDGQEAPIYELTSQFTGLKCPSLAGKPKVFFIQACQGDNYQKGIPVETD
Sequence of MCH-5 (Q14790 385-479 limits assumed, species assumed): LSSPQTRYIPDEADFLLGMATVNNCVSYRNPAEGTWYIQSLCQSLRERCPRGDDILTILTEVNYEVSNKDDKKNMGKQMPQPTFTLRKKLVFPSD
Source text: as §1, §2, §3, §4, §5

Compound	CPP32 k3/Ki (CPP32)	pKi (CPP32)	pKi (mICE)	mICE k3/Ki (mICE)	pKi (MCH-2)	MCH-2 k3/Ki (MCH-2)	pKi (MCH-5)	MCH-5 k3/Ki (MCH-5)
CC(C)[C@H](NC(=O)COc1cccc2ccccc12)C(=O)N[C@@H](CC(=O)O)C(=O)COP(=O)(c1ccccc1)c1ccccc1 [Example 103]	351,000 M^−1s^−1	7.42	7.20	143,000 M^−1s^−1	7.42	39,700 M^−1s^−1	7.60	59,300 M^−1s^−1
CC(C)C[C@H](NC(=O)COc1c(C(=O)O)ccc2ccccc12)C(=O)N[C@@H](CC(=O)O)C(=O)COP(=O)(c1ccccc1)c1ccccc1 [Example 166]	317,000 M^−1s^−1	7.55	7.38	149,000 M^−1s^−1	7.96	146,000 M^−1s^−1	7.55	80,000 M^−1s^−1
CC(C)[C@H](NC(=O)CCOc1cccc2ccccc12)C(=O)N[C@@H](CC(=O)O)C(=O)COc1cc(C(F)(F)F)n(-c2ccccc2)n1 [Example 159]	11,700 M^−1s^−1	5.93	5.86	4,580 M^−1s^−1	6.95	15,000 M^−1s^−1	4.97	86 M⁻¹ s⁻¹
CC(C)[C@H](NC(=O)COc1cccc2ccccc12)C(=O)N[C@@H](CC(=O)O)C(=O)COc1cc(F)cc(F)c1 [Example 73]	9,240 M^−1s^−1	6.97	6.23	2,170 M^−1s^−1	6.06	110 M⁻¹ s⁻¹	5.99	150 M⁻¹ s⁻¹
CC(C)[C@H](NC(=O)COc1ccc2ccccc2c1)C(=O)N[C@@H](CC(=O)O)C(=O)COc1c(F)c(F)cc(F)c1F [Example 157]	53,300 M^−1s^−1	6.59	6.65	39,300 M^−1s^−1	7.66	72,000 M^−1s^−1	7.14	11,600 M^−1s^−1
CC(C)[C@H](NC(=O)COc1cccc2ccccc12)C(=O)N[C@@H](CC(=O)O)C(=O)COc1ccc(F)c(F)c1F [Example 74]	35,800 M^−1s^−1	6.87	6.55	11,900 M^−1s^−1	5.90	250 M⁻¹ s⁻¹	5.97	770 M⁻¹ s⁻¹
O=C(O)CC(NC(=O)[C@@H]1Cc2ccccc2N1C(=O)COc1cccc2ccccc12)C(=O)CF (stereo partly drawn) [Example 61, (2′S,3RS)-3-[N-((1-Naphthyloxy)Acetyl)Indoline-2′-Carbonyl]Amino-5-Fluoro-4-Oxopentanoic Acid]	28,300 M^−1s^−1	6.44	6.83	93,200 M^−1s^−1	–	–	6.66	10,100 M^−1s^−1
CC(C)[C@H](NC(=O)COc1ccccc1-c1ccccc1)C(=O)N[C@@H](CC(=O)O)C(=O)COc1c(F)cc(F)cc1F [Example 151]	257,000 M^−1s^−1	7.49	6.46	29,600 M^−1s^−1	7.64	88,100 M^−1s^−1	6.57	5,900 M^−1s^−1
CC(C)[C@H](NC(=O)COc1ccc2ccccc2c1)C(=O)NC(CC(=O)O)C(=O)CF (mixture of isomers) [Example 54]	59,300 M^−1s^−1	6.68	5.96	8,280 M^−1s^−1	7.24	64,400 M^−1s^−1	7.23	32,300 M^−1s^−1
CC(C)C(NC(=O)COc1ccccc1-c1ccccc1)C(=O)NC(CC(=O)O)C(=O)CF (stereo not drawn) [Example 56]	105,000 M^−1s^−1	6.86	6.49	15,400 M^−1s^−1	7.28	50,000 M^−1s^−1	7.07	12,800 M^−1s^−1
CC(C)[C@H](NC(=O)COc1cccc2ccccc12)C(=O)N[C@@H](CC(=O)O)C(=O)COC(=O)c1c(Cl)cccc1Cl [Example 63]	725,000 M^−1s^−1	7.92	7.10	52,100 M^−1s^−1	7.92	56,900 M^−1s^−1	7.92	17,000 M^−1s^−1
CCCCCCP(=O)(OCC(=O)[C@H](CC(=O)O)NC(=O)[C@@H](NC(=O)COc1cccc2ccccc12)C(C)C)c1ccc(F)cc1 (stereo partly drawn) [Example 109]	48,300 M^−1s^−1	6.87	6.34	15,500 M^−1s^−1	6.92	16,800 M^−1s^−1	6.66	4,070 M^−1s^−1
CC(C)[C@H](NC(=O)COc1cccc2ccccc12)C(=O)N[C@@H](CC(=O)O)C(=O)COc1cc(F)c(F)cc1F [Example 77]	24,400 M^−1s^−1	6.91	6.58	11,500 M^−1s^−1	6.28	630 M⁻¹ s⁻¹	5.82	670 M⁻¹ s⁻¹
CC(C)[C@H](NC(=O)COc1cccc2ccccc12)C(=O)N[C@@H](CC(=O)O)C(=O)COc1cc(F)cc(F)c1F [Example 75]	60,100 M^−1s^−1	7.21	6.83	14,700 M^−1s^−1	6.66	1,510 M^−1s^−1	6.10	1,470 M^−1s^−1
CC(C)[C@H](NC(=O)COc1cccc2ccccc12)C(=O)N[C@@H](CC(=O)O)C(=O)COc1ccc(F)cc1F [Example 69]	21,700 M^−1s^−1	7.04	6.21	8,400 M^−1s^−1	6.02	0 M⁻¹ s⁻¹	5.89	630 M⁻¹ s⁻¹
CC(C)[C@H](NC(=O)COc1cccc2ccccc12)C(=O)N[C@@H](CC(=O)O)C(=O)COc1ccc(F)cc1 [Example 67]	8,560 M^−1s^−1	7.48	6.66	9,120 M^−1s^−1	6.69	0 M⁻¹ s⁻¹	6.59	700 M⁻¹ s⁻¹
CC(C)[C@H](NC(=O)COc1cccc2ccccc12)C(=O)N[C@@H](CC(=O)O)C(=O)COc1ccccc1 [Example 64]	19,200 M^−1s^−1	7.21	6.58	3,630 M^−1s^−1	6.82	2,400 M^−1s^−1	6.63	4,260 M^−1s^−1
CC(C)[C@H](NC(=O)COc1cccc2ccccc12)C(=O)N[C@@H](CC(=O)O)C(=O)COc1cccc(F)c1 [Example 66]	17,800 M^−1s^−1	6.92	6.35	2,700 M^−1s^−1	6.46	48 M⁻¹ s⁻¹	6.39	460 M⁻¹ s⁻¹
CC(C)[C@H](NC(=O)COc1cccc2ccccc12)C(=O)N[C@@H](CC(=O)O)C(=O)COc1cc(F)ccc1F [Example 70]	49,000 M^−1s^−1	6.98	6.40	12,100 M^−1s^−1	6.45	1,330 M^−1s^−1	6.12	480 M⁻¹ s⁻¹
O=C(O)CC(NC(=O)[C@@H]1Cc2ccccc2CN1C(=O)COc1cccc2ccccc12)C(=O)CF (mixture of isomers) [Example 60]	8,440 M^−1s^−1	6.12	6.43	33,500 M^−1s^−1	–	–	6.33	5,780 M^−1s^−1
